Experimental data published in patent US11884710B2, “Peptide compounds and methods of use in wound healing” (priority 2013, dated 2024).

Key:
Assay type in all cases: in vivo
[1] = tested on: P. aeruginosa (ATCC 27853); assay: Mouse model of Pseudomonas (bacterial) keratitis; conditions: 48 hours post-infection
Procedure: A circular wound was created on the mouse cornea by removing the epithelium and infected with 10^5 colony forming units (CFU) of P. aeruginosa (ATCC® 27853™ (American Type Culture Collection, Manassas, Va.)). Infected wounds were treated with saline (0.9% sodium chloride, vehicle control) or saline containing indicated concentrations of peptide every 15 minutes for 2 hours, then every 30 minutes for 3 hours on the first day. Infected wounds were treated twice on the second day and once on the third day. Mice were killed at 48 hours post-infection, and CFU/eye were quantified. The means were plotted and are representative of 5 to 9 mice per group. Mann Whitney test was performed for each group as compared to the saline control group. *P=0.014. In compound names such as BCC02-5RMP used herein, “R” represents arginine, and “MP” represents a small PEG molecule as defined elsewhere herein (such as, for example but not by way of limitation, “AEEP”).
(§1) A circular wound was created on the mouse cornea by removing the epithelium, and the wound was infected with 10^5 CFU of P. aeruginosa (ATCC® 27853™ (American Type Culture Collection, Manassas, Va.)). Infected wounds were treated with saline or saline containing indicated concentrations (2, 5, 10, and 20 mg/ml) of peptide every 30 minutes for 6 hours on the first day. Infected wounds were treated twice on the second day and once on the third day. Mice were killed at 48 hours post-infection, and the CFU/eye were quantified. The means are plotted and are representative of 5 mice per group. Mann Whitney test was performed for each group as compared to the saline control group. *P=0.015 and **P=0.097.
as §1, with “representative of 4 to 5 mice” for “representative of 5 mice”, “control group.” for “control group. *P=0.015 and **P=0.097.”
as §1, with “group. **P=0.0079 by” for “group.”, “test” for “test was performed for each group”, “group.” for “group. *P=0.015 and **P=0.097.”
A circular wound (2 mm) was created on the mouse cornea by removing the epithelium and infecting the wound with 10^5 CFU of P. aeruginosa (ATCC® 27853™ (American Type Culture Collection, Manassas, Va.)). Infected wounds were treated with saline or saline containing indicated concentrations of peptide every 15 minutes for 2 hours, then every 30 minutes for 3 hours on the first day. […] Mice were killed at 48 hours post-infection, and the colony forming units per eye (CFU/eye) were quantified. […]

[2] = tested on: full thickness excisional wounds; assay: Swine full thickness excisional dermal wound model; conditions: for Mean Wound Healing (%): topical 3 mg/ml, 0.20 ml daily; for percentage of wound healing vs saline control, in words: 3 mg/ml
Procedure: In this Example, peptide compounds of the presently disclosed inventive concepts were evaluated as to their activity on the dermal wound healing process in a clinically relevant swine full thickness excisional wound model. Three different peptide formulations (Group B, Peptide 95-122 (SEQ ID NO:26); Group C, Peptide 120-146WH (SEQ ID NO:31); and Group D, Peptide 120-146QH-5RMP (SEQ ID NO:33)) were each evaluated at the same concentration (3 mg/ml). Sterile saline served as the control (Group A).
(§2) Full thickness excisional wounds were induced on the dorsum of swine (N=3) using a 1.0 cm biopsy punch. Treatments were administered (0.20 ml) to each wound (N=6 wounds per group), and the wounds were dressed with standard occlusive dressing ([…]™, 3M Corporation, St. Paul, Minn.). Treatments were reapplied daily and dressings changed. Clinical wound healing observations and wound area (2 mm) measurements were performed on days 0, 3, 5, 7, 10, and 14 post-wounding. Wound area (2 mm) data were expressed as percentage (%) of wound healing. Animals were terminated on day 14 with wounds harvested and processed for histological evaluation. […] All peptide formulation treatment groups healed faster with greater rate of closure and re-epithelialization over time, as compared to the saline control (Group A).

[3] = tested on: full thickness excisional wounds; assay: Histopathology of swine dermal wounds; parameters: Inflammation, mean histopathology score / Angiogenesis, mean histopathology score / Granulation, mean histopathology score / Epithelization, mean histopathology score: scale not given here; conditions: for epidermal resurfacing and maturation vs saline control, in words: day 14 post-wounding; for Angiogenesis, mean histopathology score / Epithelization, mean histopathology score / Granulation, mean histopathology score / Inflammation, mean histopathology score: wounds harvested on day 14, 3 mg/ml
Procedure: The characteristics that were measured are required to indicate features of a well-healed wound. Inflammation should be low and re-epithelialization high.
as §2
The histology correlated with the clinical observations. […] There were minimal differences in the amount or character of granulation tissue, inflammation, and angiogenesis. All the wounds were well filled and vascularized.

Sequence | CFU/eye vs saline, in words ([1]; topical doses of 10 and 20 mg/ml) | Mean Wound Healing (%) ([2]; Day 0) | Mean Wound Healing (%) ([2]; Day 3) | Mean Wound Healing (%) ([2]; Day 5) | Mean Wound Healing (%) ([2]; Day 7) | Mean Wound Healing (%) ([2]; Day 10) | Mean Wound Healing (%) ([2]; Day 14) | percentage of wound healing vs saline control, in words ([2]; days 10 and 14 post-wounding) | epidermal resurfacing and maturation vs saline control, in words [3] | Angiogenesis, mean histopathology score [3] | Epithelization, mean histopathology score [3] | Granulation, mean histopathology score [3] | Inflammation, mean histopathology score [3] | infection (CFU/eye) vs saline, in words ([1]; topical 5, 10, and 20 mg/ml) | percentage of wound healing vs saline control, in words ([2]; days 5, 7, 10, and 14)
GTRCQVAGWGSWHSGGRLSRFPRFVNV (derivative of peptide of CAP37 protein) [Peptide 120-146WH] | significantly reduced the CFU/eye | 0.0 | 22.1 | 35.9 | 59.7 | 93.5 | 97.5 | significant (p<0.05) increase in the percentage of wound healing | greater extent of epidermal resurfacing and maturation of the epidermis | 1.7 | 3.7 | 4.0 | 0.5 |  | 
GTRCQVAGWGSWRSGGRLSRFPRFVNV (derivative of peptide of Homo sapiens CAP37 protein) [Peptide 120-146WR] |  |  |  |  |  |  |  |  |  |  |  |  |  | significantly reduced infection | 
LDREANLTSSVTILPLPLQNATVEAGTR (listed as Homo sapiens) [Peptide 95-122] |  | 0.0 | 28.9 | 41.5 | 70.8 | 99.7 | 100.0 |  | greater extent of epidermal resurfacing and maturation of the epidermis | 2.3 | 4.0 | 4.0 | 0.5 |  | significant (p<0.05) increase in the percentage of wound healing
